Reference: patent US20250368633A1, “AZEPINE FUSED RING COMPOUND AS RIPK1 INHIBITOR AND USE THEREOF” (ARTIVILA BIOPHARMA, priority 2022, published 2025)

How the values were obtained:
U937 cells = experiment: Inhibition rate of compound (1 μM) on necroptosis of U937 cells (TSZ-induced, CellTiter-Glo); type: cell-based; settings: TSZ (hTNF-α, SM-164, Z-VAD-FMK) 20 hours
In short: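 Percent inhibition comes from ATP luminescence (CellTiter-Glo), referenced to wells without TSZ and wells with TSZ alone. The compound was added to U937 cells 15 min ahead of a TNF-α/SM-164/Z-VAD-FMK mix, followed by 20 h culture at 37° C, 5% CO2.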

RIPK1 kinase [1] = biological target: T1, RIPK1 kinase (Homo sapiens, UniProt Q13546); experiment: In vitro RIPK1 kinase activity IC50 assay (ADP-Glo); type: biochemical; settings: ATP 10 μM; MBP substrate 100 μg/mL; 8 concentration points; read-out: IC50 range of compounds for RIPK1 kinase activity
T1 construct: purchased Promega VA7593
T1 sequence (Q13546 1-671): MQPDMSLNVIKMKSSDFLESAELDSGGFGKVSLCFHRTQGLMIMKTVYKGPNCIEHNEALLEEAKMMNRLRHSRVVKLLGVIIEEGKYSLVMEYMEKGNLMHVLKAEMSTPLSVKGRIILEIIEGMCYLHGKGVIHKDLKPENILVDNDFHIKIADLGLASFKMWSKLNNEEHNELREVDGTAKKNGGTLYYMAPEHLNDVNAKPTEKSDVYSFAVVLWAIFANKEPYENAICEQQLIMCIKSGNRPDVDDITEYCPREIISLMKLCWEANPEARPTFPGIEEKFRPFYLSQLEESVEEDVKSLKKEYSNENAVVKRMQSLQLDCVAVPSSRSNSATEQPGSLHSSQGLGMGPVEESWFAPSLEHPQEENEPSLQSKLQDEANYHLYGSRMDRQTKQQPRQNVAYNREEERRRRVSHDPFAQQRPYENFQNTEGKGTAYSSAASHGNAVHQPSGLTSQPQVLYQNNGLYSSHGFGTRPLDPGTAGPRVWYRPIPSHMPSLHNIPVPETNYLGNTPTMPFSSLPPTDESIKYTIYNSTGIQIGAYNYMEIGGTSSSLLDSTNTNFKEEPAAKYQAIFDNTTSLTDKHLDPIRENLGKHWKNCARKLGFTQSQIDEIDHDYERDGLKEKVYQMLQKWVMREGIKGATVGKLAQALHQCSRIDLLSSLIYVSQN
In short: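 Human RIPK1 preincubated 15 min at room temperature with compound (8-point 1:5 dilution series, 1% DMSO in kinase buffer D). Reaction then ran 1 h with 10 μM ATP and 100 μg/mL MBP substrate; ADP measured by ADP-Glo luminescence, IC50 from four-parameter nonlinear fit.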

RIPK1 kinase [2] = biological target: T1, RIPK1 kinase; experiment: In vitro RIPK1 kinase activity assay (ADP-Glo), inhibition by compounds at 1 μM; type: biochemical; settings: compound 1 μM; ATP 10 μM; MBP substrate 100 μg/mL; read-out: RIPK1 kinase activity inhibition rate range
In short: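 Read by ADP-Glo chemiluminescence as percent inhibition: RIPK1 kinase, 15-min room-temperature compound preincubation, then 1-h reaction with MBP (100 μg/mL final) and ATP (10 μM final). Enzyme level was set by titration.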

SMILES | Inhibition rate range of compounds (1 μM) on U937 cell necroptosis (U937 cells) | IC50 (RIPK1 kinase [1]) | inhibition at 1 µM (RIPK1 kinase [2])
CN1C(=O)[C@@H](NC(=O)C(=O)NCCc2cccc(F)c2)COc2ccc(C#CCN3CCOCC3)cc21 [Example 120, (S)—N^1-(3-fluorophenethyl)-N^2-(5-methyl-7-(3-morpholinoprop-1-yn-1-yl)-4-oxo-2,3,4,5-tetrahydrobenzo[b][1,4]oxazepin-3-yl)oxalamide] | A (A: ≥90%) | < 100 nM | ≥ 75%
CN1C(=O)[C@@H](NC(=O)C(=O)NCCc2cccc(F)c2)COc2ccc(C#CCN3C(=O)CCC3=O)cc21 [Example 122, (S)—N^1-(7-(3-(2,5-dioxopyrrolidin-1-yl)prop-1-yn-1-yl)-5-methyl-4-oxo-2,3,4,5-tetrahydrobenzo[b][1,4]oxazepin-3-yl)-N^2-(3-fluorophenethyl)oxalamide] | A (A: ≥90%) | < 100 nM | ≥ 75%
CN1C(=O)[C@@H](NC(=O)C(=O)NCCc2cccc(F)c2)COc2ccc(C#CCN3CCNC(=O)C3)cc21 [Example 123, (S)—N^1-(3-fluorophenethyl)-N^2-(5-methyl-4-oxo-7-(3-(3-oxopiperazin-1-yl)prop-1-yn-1-yl)-2,3,4,5-tetrahydrobenzo[b][1,4]oxazepin-3-yl)oxalamide] | B (B: 50-89%) | < 100 nM | 50 to 74%
C[C@@H](NC(=O)C(=O)N[C@H]1COc2ccc(C#CCN3CC[C@@H](O)C3)cc2N(C)C1=O)c1ccccc1 [Example 128, N^1-((S)-7-(3-((R)-3-hydroxypyrrolidin-1-yl)prop-1-yn-1-yl)-5-methyl-4-oxo-2,3,4,5-tetrahydrobenzo[b][1,4]oxazepin-3-yl)-N^2-((R)-1-phenylethyl)oxalamide] | B (B: 50-89%) | < 100 nM | ≥ 75%
C[C@@H](NC(=O)C(=O)N[C@H]1COc2ccc(C#CCN3CC[C@H](O)C3)cc2N(C)C1=O)c1ccccc1 [Example 130, N^1-((S)-7-(3-((S)-3-hydroxypyrrolidin-1-yl)prop-1-yn-1-yl)-5-methyl-4-oxo-2,3,4,5-tetrahydrobenzo[b][1,4]oxazepin-3-yl)-N^2-((R)-1-phenylethyl)oxalamide] | A (A: ≥90%) | < 100 nM | ≥ 75%
C[C@@H](NC(=O)C(=O)N[C@H]1COc2ccc(C#CC3(O)COC3)cc2N(C)C1=O)c1ccccc1 [Example 132, N^1-((S)-7-((3-hydroxyoxetan-3-yl)ethynyl)-5-methyl-4-oxo-2,3,4,5-tetrahydrobenzo[b][1,4]oxazepin-3-yl)-N^2-((R)-1-phenylethyl)oxalamide] | A (A: ≥90%) | < 100 nM | 50 to 74%
C[C@@H](NC(=O)C(=O)N[C@H]1COc2ccc(C#CC3CCN(CC#N)CC3)cc2N(C)C1=O)c1ccccc1 [Example 137, N^1-((S)-7-((1-(cyanomethyl)piperidin-4-yl)ethynyl)-5-methyl-4-oxo-2,3,4,5-tetrahydrobenzo[b][1, 4]oxazepin-3-yl)-N^2-((R)-1-phenylethyl)oxalamide] | A (A: ≥90%) | < 100 nM | ≥ 75%
C[C@@H](NC(=O)C(=O)N[C@H]1COc2ccc(C#CCN3CCC(O)CC3)cc2N(C)C1=O)c1ccccc1 [Example 138, N^1-((S)-7-(3-(4-hydroxypiperidin-1-yl)prop-1-yn-1-yl)-5-methyl-4-oxo-2,3,4,5-tetrahydrobenzo[b][1,4]oxazepin-3-yl)-N^2-((R)-1-phenylethyl)oxalamide] | A (A: ≥90%) | < 100 nM | ≥ 75%
